{
  "source": "paper PMC6294118",
  "about": "(Pharmaceutical research, 2018)",
  "key": {"hOCT2": {"target": "T1, hOCT2 (Homo sapiens, UniProt O15244)", "T1 sequence (O15244 1-555)": "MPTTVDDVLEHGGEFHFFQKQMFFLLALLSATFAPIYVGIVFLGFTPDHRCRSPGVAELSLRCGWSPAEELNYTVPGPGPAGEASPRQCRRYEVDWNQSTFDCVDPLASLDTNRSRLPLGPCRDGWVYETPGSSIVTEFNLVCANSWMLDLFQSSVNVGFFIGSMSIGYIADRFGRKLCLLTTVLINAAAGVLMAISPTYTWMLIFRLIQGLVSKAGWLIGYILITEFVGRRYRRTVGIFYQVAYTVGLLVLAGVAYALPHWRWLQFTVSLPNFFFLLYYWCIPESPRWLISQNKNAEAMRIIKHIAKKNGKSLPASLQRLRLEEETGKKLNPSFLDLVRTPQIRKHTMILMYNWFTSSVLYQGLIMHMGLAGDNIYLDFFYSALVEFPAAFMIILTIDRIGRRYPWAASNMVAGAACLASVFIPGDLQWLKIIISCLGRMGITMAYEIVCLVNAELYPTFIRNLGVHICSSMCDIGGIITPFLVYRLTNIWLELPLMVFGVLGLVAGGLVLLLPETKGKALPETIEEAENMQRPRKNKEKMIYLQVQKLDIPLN", "assay": "Inhibition of hOCT2-mediated morphine uptake in HEK293-hOCT2 cells", "assay_type": "cell-based", "conditions": "for Cmax,unbound/IC50 (hOCT2): ratio of literature Cmax,unbound to hOCT2 IC50"}, "hOCT1 [1]": {"target": "T2, hOCT1 (Homo sapiens, UniProt O15245)", "T2 sequence (O15245 1-554)": "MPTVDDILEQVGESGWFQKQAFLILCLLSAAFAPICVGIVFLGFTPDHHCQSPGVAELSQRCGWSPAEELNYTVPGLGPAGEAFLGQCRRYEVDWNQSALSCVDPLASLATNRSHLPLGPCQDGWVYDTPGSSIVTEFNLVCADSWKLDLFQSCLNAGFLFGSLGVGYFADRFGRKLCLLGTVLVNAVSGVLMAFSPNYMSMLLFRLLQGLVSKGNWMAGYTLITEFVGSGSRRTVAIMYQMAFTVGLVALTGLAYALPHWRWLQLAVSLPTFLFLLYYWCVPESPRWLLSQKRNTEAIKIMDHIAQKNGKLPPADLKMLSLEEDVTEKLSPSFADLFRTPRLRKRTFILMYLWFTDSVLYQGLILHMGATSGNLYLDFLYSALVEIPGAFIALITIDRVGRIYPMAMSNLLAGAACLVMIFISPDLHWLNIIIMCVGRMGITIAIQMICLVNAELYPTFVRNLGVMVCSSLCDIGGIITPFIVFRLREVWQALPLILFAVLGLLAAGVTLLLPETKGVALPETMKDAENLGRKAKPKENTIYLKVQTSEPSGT", "conditions": "for Cmax,unbound/IC50 (hOCT1): ratio of literature Cmax,unbound to hOCT1 IC50; for Cmax,unbound/IC50 (hOCT1, second ratio column): ratio to hOCT1 IC50, the values fit Cmax port,unbound/IC50"}, "hOCT1 [2]": {"target": "T2, hOCT1", "assay": "cell-based"}, "[3]": {"conditions": "cited from earlier work; for Cmax port,unbound (maximal unbound plasma concentration in the portal vein): in vivo"}},
  "data": [
    {"compound": "CN(C)CCC=C1c2ccccc2CCc2ccccc21", "note": "[Amitriptyline, amitriptyline]", "values": [
      {"measurement": "IC50", "setting": "hOCT2", "value": "410 ± 50", "unit": "nM"},
      {"measurement": "Cmax,unbound/IC50 (hOCT2)", "setting": "hOCT2", "value": 0.02},
      {"measurement": "Cmax,unbound/IC50 (hOCT1)", "setting": "hOCT1 [1]", "value": 0.005},
      {"measurement": "Cmax,unbound/IC50 (hOCT1, second ratio column)", "setting": "hOCT1 [1]", "value": 2.28},
      {"measurement": "IC50", "setting": "hOCT1 [2]", "value": "1890 ± 770", "unit": "nM"},
      {"measurement": "Cmax port,unbound (maximal unbound plasma concentration in the portal vein)", "setting": "[3]", "value": 4300, "unit": "nM"}
    ]},
    {"compound": "CNCCC(Oc1ccc(C(F)(F)F)cc1)c1ccccc1", "note": "(stereo not drawn) [Fluoxetine, fluoxetine]", "values": [
      {"measurement": "IC50", "setting": "hOCT2", "value": "3320 ± 760", "unit": "nM"},
      {"measurement": "Cmax,unbound/IC50 (hOCT2)", "setting": "hOCT2", "value": 0.003},
      {"measurement": "Cmax,unbound/IC50 (hOCT1)", "setting": "hOCT1 [1]", "value": 0.001},
      {"measurement": "Cmax,unbound/IC50 (hOCT1, second ratio column)", "setting": "hOCT1 [1]", "value": 0.08},
      {"measurement": "IC50", "setting": "hOCT1 [2]", "value": "9060 ± 3240", "unit": "nM"},
      {"measurement": "Cmax port,unbound (maximal unbound plasma concentration in the portal vein)", "setting": "[3]", "value": 700, "unit": "nM"}
    ]},
    {"compound": "CN(C)CCCN1c2ccccc2CCc2ccccc21", "note": "[Imipramine, imipramine]", "values": [
      {"measurement": "IC50", "setting": "hOCT1 [2]", "value": "4030 ± 1620", "unit": "nM"},
      {"measurement": "Cmax port,unbound (maximal unbound plasma concentration in the portal vein)", "setting": "[3]", "value": 4500, "unit": "nM"}
    ]},
    {"compound": "CCc1c2c(nc3ccc(OC(=O)N4CCC(N5CCCCC5)CC4)cc13)-c1cc3c(c(=O)n1C2)COC(=O)[C@]3(O)CC", "note": "[Irinotecan, irinotecan]", "values": [
      {"measurement": "IC50", "setting": "hOCT1 [2]", "value": "1360 ± 430", "unit": "nM"}
    ]},
    {"compound": "Cc1nccn1CC1CCc2c(c3ccccc3n2C)C1=O", "note": "(stereo not drawn) [Ondansetron, ondansetron]", "values": [
      {"measurement": "IC50", "setting": "hOCT1 [2]", "value": "270 ± 100", "unit": "nM"},
      {"measurement": "Cmax port,unbound (maximal unbound plasma concentration in the portal vein)", "setting": "[3]", "value": 80, "unit": "nM"}
    ]},
    {"compound": "CN1CC[C@]23c4c5ccc(O)c4O[C@H]2[C@@H](O)C=C[C@H]3[C@H]1C5", "note": "[morphine]", "values": [
      {"measurement": "Fraction of dose excreted as unchanged morphine in urine", "setting": "[3]", "value": "approximately 10%"}
    ]}
  ]
}
